Target: T1, Human brain derived TDP-43 aggregates (Homo sapiens, UniProt Q13148)
T1 construct: A sample of brain tissue (frontal or temporal cortex) was homogenized; from tissue; host or cells: sarkosyl-insoluble fraction of human FTD brain (frontal or temporal cortex)
Assay: Micro-radiobinding competition assay on human FTD sarkosyl-insoluble brain extracts
Type: binding
Conditions: radioligand [3H]-Compound 52 (75 nM); for Ki: 0.24 nM to 2 μM test compound; for Human brain derived TDP-43 aggregates Mean % competition at 250 nM: 250 nM test compound; for Human brain derived TDP-43 aggregates Mean % competition at 2 μM: 2 μM test compound
Protocol: Human brain extracts were prepared as described in Laferriere et al., 2019, Nature Neurosc. A sample of brain tissue (frontal or temporal cortex) was homogenized at 1:4 (w/v) ratio in the homogenization-solubilization (HS) buffer at 4° C. using tissue homogenizer (Precellys) with CKmix homogenization tubes. The following sequence was used for homogenization: 3 cycles of 30 seconds at 5000 rpm (with 15 seconds pause between each cycle). Homogenized samples were aliquoted and stored at −80° C. in 1.5 mL low protein binding tubes.
Brain homogenates were thawed on ice and resuspended in HS buffer to obtain a final concentration of 2% sarkosyl, 1 unit/μL Benzonase and 1 mM MgCl2. The samples were then incubated at 37° C. under constant shaking at 600 rpm on a thermomixer for 45 minutes (min). The supernatants were collected in a new tube (sarkosyl-soluble fraction, S1). The pellet was resuspended in 1000 μL of myelin floatation buffer and centrifuged at 20,000 g for 60 min at 4° C. The supernatant was carefully removed to remove all the floating lipids. This step was repeated if all the lipids could not be removed in a single step. The pellet was subsequently washed with Phosphate-Buffered Saline (PBS) and centrifuged for 30 min at 20,000 g at 4° C. The final pellet was resuspended in 200 μL PBS and stored at −80° C. (sarkosyl-insoluble fraction). The samples were analyzed by immunoblotting in denaturing conditions.
Human FTD sarkosyl-insoluble brain extracts were spotted onto microarray slides. The slides were incubated with [^3H]-Compound 52 or [^3H]-Compound 16 ligands at 75 nM or 40 nM, respectively, and the example compounds (non-radiolabelled) at 2 μM and 250 nM. In some cases, the non-radiolabelled example compounds were further assessed for a range of different concentrations, varying from 0.24 nM to 2 μM for determination of the inhibition constant (Ki). After incubation, slides were washed and scanned by a real-time autoradiography system (BeaQuant, ai4R). Quantification of the signal was performed by using the Beamage image analysis software (ai4R). Non-specific signal was determined with an excess of non-radiolabelled compound 52 or compound 16 (2 μM) and specific binding was calculated by subtracting the non-specific signal from the total signal. Competition was calculated as percent, where 0% was defined as the specific binding in the presence of vehicle and 100% as the values obtained in the presence of excess of the non-radiolabelled compound 52 or compound 16. Ki values were calculated in GraphPad Prism7 by applying a nonlinear regression curve fit using a one site, specific binding model. Measurements were performed with at least two technical replicates in the two-concentration competition experiment and with one technical replicate in the experiments including a range of concentrations. For compounds tested in more than one experiment, the mean of the replicates or Ki values in independent experiments is reported.

T1 sequence (Q13148 whole entry): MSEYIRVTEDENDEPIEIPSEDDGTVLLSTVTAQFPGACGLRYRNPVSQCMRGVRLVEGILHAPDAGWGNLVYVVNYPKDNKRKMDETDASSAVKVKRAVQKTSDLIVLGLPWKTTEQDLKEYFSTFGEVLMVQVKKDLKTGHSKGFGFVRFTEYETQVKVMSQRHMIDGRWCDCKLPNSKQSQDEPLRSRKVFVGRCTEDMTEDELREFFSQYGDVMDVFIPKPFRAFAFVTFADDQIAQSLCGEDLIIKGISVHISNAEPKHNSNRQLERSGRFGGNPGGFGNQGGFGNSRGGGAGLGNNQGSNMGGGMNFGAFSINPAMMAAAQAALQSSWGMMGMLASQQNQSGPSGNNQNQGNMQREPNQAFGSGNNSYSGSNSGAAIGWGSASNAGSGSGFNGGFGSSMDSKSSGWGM

Row | Structure (SMILES) | Ki [nM] | Human brain derived TDP-43 aggregates Mean % competition at 250 nM | Human brain derived TDP-43 aggregates Mean % competition at 2 μM
1 | Cn1cc(N2CCc3nc(-c4ccc(N5CC[C@@H](F)C5)nc4)sc3C2=O)cn1 [Example 1, (R)-2-(6-(3-fluoropyrrolidin-1-yl)pyridin-3-yl)-5-(1-methyl-1H-pyrazol-4-yl)-6,7-dihydrothiazolo[5,4-c]pyridin-4(5H)-one] | 18.7 | – | –
2 | Cn1cc(N2CCc3nc(-c4ccc(N5CCC[C@@H](F)C5)nc4)sc3C2=O)cn1 [Example 2, (R)-2-(6-(3-fluoropiperidin-1-yl)pyridin-3-yl)-5-(1-methyl-1H-pyrazol-4-yl)-6,7-dihydrothiazolo[5,4-c]pyridin-4(5H)-one] | 71.7 | 61.0ª % | 92.5ª %
3 | Nc1cccc(N2CCc3nc(-c4ccc(N5CCCC5)nc4)sc3C2=O)c1F [Example 14] | 58.8 | 44.0ª % | 85.7ª %
4 | N#Cc1c(N)cccc1N1CCc2nc(-c3ccc(N4CCCC4)nc3)sc2C1=O [Example 16, 2-amino-6-(4-oxo-2-(6-(pyrrolidin-1-yl)pyridin-3-yl)-6,7-dihydrothiazolo[5,4-c]pyridin-5(4H)-yl)benzonitrile] | 81 | 46.0ª % | 83.2ª %
5 | N#Cc1cc(N2CCc3nc(-c4ccc(N5CCCC5)nc4)sc3C2=O)ccc1N [Example 18] | 68.6 | 76.2ª % | 102.0ª %
6 | N#Cc1cc(N2CCc3nc(-c4ccc(N5CC[C@@H](F)C5)nc4)sc3C2=O)ccc1N [Example 20] | 161 | 66.7ª % | 88.3ª %
7 | N#Cc1ccc(N2CCc3nc(-c4ccc(N5CC[C@H](F)C5)nc4)sc3C2=O)cc1N [Example 22] | – | 64.2ª % | 80.3ª %

Second part, the molecule after the results:

Row | Ki [nM] | Human brain derived TDP-43 aggregates Mean % competition at 250 nM | Human brain derived TDP-43 aggregates Mean % competition at 2 μM | Structure (SMILES)
8 | 73.1 | 62.2ª % | 91.2ª % | Nc1cc(N2CCc3nc(-c4ccc(N5CCCC5)nc4)sc3C2=O)ccc1F [Example 3, 5-(3-amino-4-fluorophenyl)-2-(6-(pyrrolidin-1-yl)pyridin-3-yl)-6,7-dihydrothiazolo[5,4-c]pyridin-4(5H)-one]
9 | – | 69.4ª % | 105.0ª % | Cn1cc(N2CCc3nc(-c4ccc(N5CC[C@H](F)C5)nc4)sc3C2=O)cn1 [Example 13]
10 | 139 | 64.6ª % | 96.4ª % | Nc1ccc(N2CCc3nc(-c4ccc(N5CCCC5)nc4)sc3C2=O)cc1F [Example 15]
11 | – | 82.0ª % | 95.0ª % | N#Cc1ccc(N2CCc3nc(-c4ccc(N5CCCC5)nc4)sc3C2=O)cc1N [Example 17]
12 | 54.2 | 76.9ª % | 92.1ª % | N#Cc1ccc(N2CCc3nc(-c4ccc(N5CC[C@@H](F)C5)nc4)sc3C2=O)cc1N [Example 19]
13 | – | 22.7ª % | 40.1ª % | N#Cc1c(N)cccc1N1CCc2nc(-c3ccc(N4CC[C@H](F)C4)nc3)sc2C1=O [Example 21, (S)-2-amino-6-(2-(6-(3-fluoropyrrolidin-1-yl)pyridin-3-yl)-4-oxo-6,7-dihydrothiazolo[5,4-c]pyridin-5(4H)-yl)benzonitrile]
